This note sets out measurements from EP0071535B1, “(4-(2 and/or 3-Thienylacetamido)-phenoxy)-hydroxyaminopropanes, their preparation, their therapeutic use and intermediates” (CARPIBEM (CENTRE D'ACTIVITE ET DE RECHERCHE PHARMACEUTIQUE …, priority 1981, dated 1983).

The test system of experiment [1] is effets β1 (augmentation de la force contractile du myocarde) de l'isoprénaline. Description: β-blocking activity: inhibition of the β1 effects of intravenous isoprenaline in anaesthetised dogs. The experiment is classed as in vivo, chiens. Conditions: dog; for inhibition at 0.001 mg/kg / inhibition at 0.01 mg/kg / inhibition at 0.1 mg/kg / inhibition at 0.003 mg/kg: Canis lupus familiaris, iv, inhibition given with negative sign, read-out: % d'inhibition des effets β1^(+) de l'Isoprénaline; for inhibition at 0.001 mg/kg: 0,001 mg/kg I.V.; for inhibition at 0.01 mg/kg: 0,010 mg/kg I.V.; for inhibition at 0.1 mg/kg: 0,100 mg/kg I.V.; for inhibition at 0.003 mg/kg: 0,003 mg/kg I.V. Here is the method: (§1) Des chiens tout-venants mâles ou femelles sont anesthésiés au mébubarbital sodique (30 mg/kg I.V.) et ventilés artificiellement par une pompe Pesty RPP. Ils sont supplémentés en oxygène.
(§2) On mesure: • - la pression carotidienne systolique et diastolique • - la force contractile du myocarde.
(§3) Les signaux sont amplifiés et enregistrés sur Dynograph Beckman.
(§4) L'activité β bloquante adrénergique a été étudiée vis-à-vis des effets β1 (augmentation de la force contractile du myocarde) et des effets P2 (diminution de la pression artérielle disstolique) de l'isoprénaline administrée par voie intraveineuse.
(§5) On calcule le pourcentsge d'inhibition des effets β1 et des effets β2 de l'isoprénaline en fonction des doses (mg.kg I.V.) des différents exemples.
(§6) Les exemples sont injectés dans le veine saphène aux doses (exprimées en base) de: 0,0003 0,001 0,003 0,01 0,1 1,0 et 4,0 ou 8,0 mg.kg-1.

For experiment [2], the system named is rat génétiquement hypertendu: Rat OKAMOTO. Description: Antihypertensive activity in spontaneously hypertensive rats (tail-cuff systolic pressure and heart rate after oral dosing). The experiment is classed as in vivo. Here is the method:
Des rats mâles âgés de 13 à 21 semaines présentant une hypertension spontanée génétiquement transmissible (souche OKAMOTO provenance IFFA CREDO) sont placés dans une enceinte thermostatée à 38°C. Les rats sont laissés en situation libre. La pression artérielle est mesurée par un sphygmomanomètre Narco Biosystem. Un manchon est placé à la base de la queue et un détecteur enregistre le pouls en aval du manchon. Celui-ci est gonflé jusqu'à suppression du pouls il est ensuite progressivement dégonflé. La pression mesurée à la reprise des battements cardiaques est la pression artérielle systolique. On calcule la fréquence cardiaque à partir de l'enregistrement du pouls artériel. Les produits à étudiar sont mis en suspension el administrés par voie orale sous un volume de 1 ml pour 100 g de poids corporel. Les mesures sont répétées à intervalles réguliers.
Les valeurs moyennes avant traitement pour les différents lots de rats sont pour la pression artérielle systolique de 190 à 200 mmHg et pour la fréquence cardiaque de 305 à 350 battements par minute.
Le tableau III ci-après donne la moyenne des variations de la pression systolique (mmHg) de la fréquence cardisque (battements/minute) et les écarts type à la moyenne obtenus 1 heure 3 heures et 5 heures après administration orale.

The test system of experiment [3] is effets β2 (diminution de la pression artérielle diastolique) de l'isoprénaline. The experiment is described as follows: β-blocking activity: inhibition of the β2 effects of intravenous isoprenaline in anaesthetised dogs. It is filed as in vivo, chiens. Particulars: dog; for inhibition at 0.001 mg/kg / inhibition at 0.01 mg/kg / inhibition at 0.1 mg/kg / inhibition at 0.003 mg/kg: Canis lupus familiaris, iv, inhibition given with negative sign, read-out: % d'inhibition des effets β2^⊕ de l'Isoprénaline; for inhibition at 0.001 mg/kg: 0,001 mg/kg I.V.; for inhibition at 0.01 mg/kg: 0,010 mg/kg I.V.; for inhibition at 0.1 mg/kg: 0,100 mg/kg I.V.; for inhibition at 0.003 mg/kg: 0,003 mg/kg I.V. The protocol:
as §1, §2, §3, §4, §5, §6

Where [4] appears, read: 0.1 mg.kg^-1 voie intraveineuse.
[5] abbreviates: 1.0 mg.kg^-1 voie intraveineuse.
Where [6] appears, read: 8.0 mg.kg^-1 voie intraveineuse.

Take `CC(C)NCC(O)COc1ccc(NC(=O)Cc2ccsc2)cc1C#N` (stereo not shown) [exemple 10, 1-[2-cyano 4-(3-thiénylacétamido)phénoxy] 3-isopropylamino 2-propanol]: in experiment [1], the inhibition (commonly the drop in the measured response relative to a control, in per cent) at 0.001 mg/kg is -22%; the inhibition at 0.01 mg/kg is -47%; the inhibition at 0.1 mg/kg was -91%. In experiment [2] (128 mg.kg^-1 V.O), the “Fréquence cardiaque Δ (battements/min) T+1 heure m (sm)” value is listed as “+25 (15) battements/min”, the “Pression systolique Δ (mmHg) T+1 heure m (sm)” value is -13 (12) mmHg, the “Fréquence cardiaque Δ (battements/min) T+3 heures m (sm)” value is “+28 (7) battements/min” and the “Pression systolique Δ (mmHg) T+3 heures m (sm)” value is reported as -5 (9) mmHg. For the same molecule, in experiment [2] (128 mg.kg^-1 V.O), the “Fréquence cardiaque Δ (battements/min) T+5 heures m (sm)” value is given as “+25 (7) battements/min” and the “Pression systolique Δ (mmHg) T+5 heures m (sm)” value is recorded as -26 (8) mmHg. In experiment [3], the inhibition at 0.001 mg/kg is -21%, the inhibition at 0.01 mg/kg was -33% and the inhibition at 0.1 mg/kg was -39%.

On to `C=CCc1cc(NC(=O)Cc2cccs2)ccc1OCC(O)CNC(C)(C)C` (stereo not shown) [exemple 11, 1-[2-allyl 4-(2-thiénylacétamido)phénoxy] 3-ter-butylamino 2-propanol], for which the “Pourcentages d'inhibition des effets β1 de l'Isoprénaline” value amounted to 11% in experiment [1] (0.001 mg.kg^-1 voie intraveineuse); 37% in experiment [1] (0.003 mg.kg^-1 voie intraveineuse); 70% in experiment [1] (0.01 mg.kg^-1 voie intraveineuse); 100% in experiment [1] (setting [4]); 100% in experiment [1] (setting [5]); 100% in experiment [1] (setting [6]). Further, the inhibition at 0.001 mg/kg in experiment [1] is -11%; in experiment [3] it was 0%. The inhibition at 0.003 mg/kg is -37% in experiment [1] and 0% in experiment [3]. The inhibition at 0.01 mg/kg was -70% in experiment [1] and 0% in experiment [3]. Further, the inhibition at 0.1 mg/kg is -100% in experiment [1] and -17% in experiment [3]. Further, the “Fréquence cardiaque Δ (battements/min) T+1 heure m (sm)” value in experiment [2] (64 mg.kg^-1 V.O) is given as “+7 (8) battements/min”. Besides, the “Pression systolique Δ (mmHg) T+1 heure m (sm)” value in experiment [2] (64 mg.kg^-1 V.O) is listed as -54 (1) mmHg. Also, the “Fréquence cardiaque Δ (battements/min) T+3 heures m (sm)” value in experiment [2] (64 mg.kg^-1 V.O) is recorded as “+10 (9) battements/min”. Further, in experiment [2] (64 mg.kg^-1 V.O), the “Pression systolique Δ (mmHg) T+3 heures m (sm)” value is reported as -49 (10) mmHg. In addition, the “Fréquence cardiaque Δ (battements/min) T+5 heures m (sm)” value in experiment [2] (64 mg.kg^-1 V.O) was 0 (9) battements/min. Further, the “Pression systolique Δ (mmHg) T+5 heures m (sm)” value in experiment [2] (64 mg.kg^-1 V.O) is given as -44 (11) mmHg. The figures for the “Pourcentages d'inhibition des effets β2 de l'Isoprénaline” value in experiment [3] (setting [4]), in experiment [3] (setting [5]) and in experiment [3] (setting [6]) were 17%, 77% and 100%, respectively.

On to `C=CCc1cc(NC(=O)Cc2ccsc2)ccc1OCC(O)CNC(C)(C)C` (stereo not shown) [exemple 38, 1-[2-allyl 4-(3-thiénylacétamido)phénoxy] 3-terbutylamino 2-propanol], for which, in experiment [1], the inhibition at 0.001 mg/kg was -5%, the inhibition at 0.003 mg/kg is -35%, the inhibition at 0.01 mg/kg was -73% and the inhibition at 0.1 mg/kg is -100%. In addition, in experiment [2] (64 mg.kg^-1 V.O), the “Fréquence cardiaque Δ (battements/min) T+1 heure m (sm)” value was “+39 (9) battements/min”, the “Pression systolique Δ (mmHg) T+1 heure m (sm)” value is listed as -31 (5) mmHg, the “Fréquence cardiaque Δ (battements/min) T+3 heures m (sm)” value is “+21 (9) battements/min” and the “Pression systolique Δ (mmHg) T+3 heures m (sm)” value is recorded as -26 (5) mmHg. For the same molecule, in experiment [2] (64 mg.kg^-1 V.O), the “Fréquence cardiaque Δ (battements/min) T+5 heures m (sm)” value is “+29 (13) battements/min” and the “Pression systolique Δ (mmHg) T+5 heures m (sm)” value was -34 (7) mmHg. For the same molecule, in experiment [3], the inhibition at 0.001 mg/kg is -4%, the inhibition at 0.003 mg/kg is -4%, the inhibition at 0.01 mg/kg is -6% and the inhibition at 0.1 mg/kg is -27%.

As for `CC(C)(C)NCC(O)COc1ccc(NC(=O)Cc2cccs2)cc1Br` (stereo not shown) [exemple 39, 1-[2-bromo 4-(2-thiénylacétamido)phénoxy] 3-terbutylamino 2-propanol], in experiment [1], the inhibition at 0.001 mg/kg was -11%, the inhibition at 0.003 mg/kg is -65%, the inhibition at 0.01 mg/kg is -89% and the inhibition at 0.1 mg/kg was -100%. Also, in experiment [2] (128 mg.kg^-1 V.O), the “Fréquence cardiaque Δ (battements/min) T+1 heure m (sm)” value is on record as “+47 (15) battements/min”, the “Pression systolique Δ (mmHg) T+1 heure m (sm)” value is on record as -33 (9) mmHg, the “Fréquence cardiaque Δ (battements/min) T+3 heures m (sm)” value was “+56 (4) battements/min” and the “Pression systolique Δ (mmHg) T+3 heures m (sm)” value is -34 (11) mmHg. In addition, in experiment [2] (128 mg.kg^-1 V.O), the “Fréquence cardiaque Δ (battements/min) T+5 heures m (sm)” value was “+47 (4) battements/min” and the “Pression systolique Δ (mmHg) T+5 heures m (sm)” value was -43 (9) mmHg. Also, in experiment [3], the inhibition at 0.001 mg/kg was found to be 0%, the inhibition at 0.003 mg/kg amounted to 0%, the inhibition at 0.01 mg/kg was -5% and the inhibition at 0.1 mg/kg is -49%.

With `CC(C)NCC(O)COc1ccc(NC(=O)Cc2cccs2)cc1Br` (stereo not shown) [exemple 40, 1-[2-bromo 4-(2-thiénylacétamido)phénoxy] 3-isopropylamino 2-propanol], in experiment [1], the inhibition at 0.001 mg/kg was determined as 0%, the inhibition at 0.003 mg/kg was -19%, the inhibition at 0.01 mg/kg was -53% and the inhibition at 0.1 mg/kg is -93%. In addition, in experiment [2] (128 mg.kg^-1 V.O), the “Fréquence cardiaque Δ (battements/min) T+1 heure m (sm)” value is given as “+23 (23) battements/min”, the “Pression systolique Δ (mmHg) T+1 heure m (sm)” value is -58 (10) mmHg, the “Fréquence cardiaque Δ (battements/min) T+3 heures m (sm)” value is reported as “+20 (14) battements/min” and the “Pression systolique Δ (mmHg) T+3 heures m (sm)” value was -63 (7) mmHg. Moreover, in experiment [2] (128 mg.kg^-1 V.O), the “Fréquence cardiaque Δ (battements/min) T+5 heures m (sm)” value is recorded as “+18 (11) battements/min” and the “Pression systolique Δ (mmHg) T+5 heures m (sm)” value is on record as -63 (3) mmHg. In addition, in experiment [3], the inhibition at 0.001 mg/kg worked out at 0%, the inhibition at 0.003 mg/kg was 0%, the inhibition at 0.01 mg/kg is 0% and the inhibition at 0.1 mg/kg was -4%.

For the molecule `CC(C)(C)NCC(O)COc1ccc(NC(=O)Cc2ccsc2)cc1Br` (stereo not shown) [exemple 41, 1-[2-bromo 4-(3-thiénylacétamido)phénoxy] 3-terbutylamino 2-propanol], in experiment [1], the inhibition at 0.001 mg/kg is -12%, the inhibition at 0.003 mg/kg is -49%, the inhibition at 0.01 mg/kg is -83% and the inhibition at 0.1 mg/kg is -97%. In experiment [2] (64 mg.kg^-1 V.O), the “Fréquence cardiaque Δ (battements/min) T+1 heure m (sm)” value is on record as “+57 (18) battements/min”, the “Pression systolique Δ (mmHg) T+1 heure m (sm)” value was -44 (14) mmHg, the “Fréquence cardiaque Δ (battements/min) T+3 heures m (sm)” value is “+55 (15) battements/min” and the “Pression systolique Δ (mmHg) T+3 heures m (sm)” value is on record as -30 (10) mmHg. Also, in experiment [2] (64 mg.kg^-1 V.O), the “Fréquence cardiaque Δ (battements/min) T+5 heures m (sm)” value is “+68 (16) battements/min” and the “Pression systolique Δ (mmHg) T+5 heures m (sm)” value is given as -33 (12) mmHg. In experiment [3], the inhibition at 0.001 mg/kg was -3%, the inhibition at 0.003 mg/kg came out at 0%, the inhibition at 0.01 mg/kg was -31% and the inhibition at 0.1 mg/kg is -55%.
